Measured values from PubChem BioAssay (NCI).
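48-hour exposure; five concentrations; linearly interpolated endpoints. Abbreviation: GI50, concentration required for 50% inhibition of growth. TGI marks complete inhibition of growth.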

Assays:
Assay in all cases: inhibition of tumour cell growth, NCI panel, 48 h
PC-3 prostate = test system: PC-3 prostate
SF-268 CNS = test system: SF-268 CNS
NCI-H226 lung = test system: NCI-H226 lung
SK-MEL-2 melanoma = test system: SK-MEL-2 melanoma
IGROV1 ovarian = test system: IGROV1 ovarian
HOP-92 NSCLC = test system: HOP-92 NSCLC
HS 578T breast = test system: HS 578T breast
DU-145 prostate = test system: DU-145 prostate
U251 CNS = test system: U251 CNS
UO-31 renal = test system: UO-31 renal

Structure (SMILES) | TGI (PC-3 prostate) [µM] | TGI (SF-268 CNS) [µM] | TGI (NCI-H226 lung) [µM] | TGI (SK-MEL-2 melanoma) [µM] | TGI (IGROV1 ovarian) [µM] | TGI (HOP-92 NSCLC) [µM] | TGI (HS 578T breast) [µM] | TGI (DU-145 prostate) [µM] | TGI (U251 CNS) [µM] | TGI (UO-31 renal) [µM] | GI50 (PC-3 prostate) [µM] | GI50 (SF-268 CNS) [µM] | GI50 (NCI-H226 lung) [µM] | GI50 (SK-MEL-2 melanoma) [µM] | GI50 (IGROV1 ovarian) [µM] | GI50 (HOP-92 NSCLC) [µM] | GI50 (HS 578T breast) [µM] | GI50 (DU-145 prostate) [µM] | GI50 (U251 CNS) [µM] | GI50 (UO-31 renal) [µM]
COC(=O)C(COC(=O)/C=C/c1ccc(OC(C)=O)c(OC(C)=O)c1)OC(=O)/C=C/c1ccc(OC(C)=O)c(OC(C)=O)c1 (stereo not given) | 23.4 | 64.2 | 90.5 | 26 | 23.9 | 47.6 | > 100 | 24.7 | 20.4 | 21.8 |  |  |  |  |  |  |  |  |  | 
CCOC(=O)C1=C(C)NC(=S)NC1c1cccc(O)c1 (stereo not given) | > 89.6 | > 100 | > 100 | 79 | > 100 | > 84.3 | > 100 | > 100 | > 96.5 | > 100 |  |  |  |  |  |  |  |  |  | 
COc1cccc(-c2nc3sccn3c2-c2ccnc(NCCNC(=O)Nc3cccc(C(F)(F)F)c3)n2)c1 | 11.9 | 43.4 | 68.6 | 4.46 | 21.8 | 9.47 | 29 | 95.5 | 19.8 | 24.8 | 2.48 | 4.59 | 4.58 | 2.03 | 3.32 | 0.853 | 3.15 | 5.13 | 3.95 | 2.88
O=C(/C=C/c1ccc([N+](=O)[O-])cc1)c1nc2ccccc2[nH]1 | > 100 | > 100 | 4.39 | > 100 | 17.9 | > 100 | > 100 | > 100 | > 100 | > 100 |  |  |  |  |  |  |  |  |  | 
CSCCC(NC(=O)OC(C)(C)C)C(=O)NCCNc1ccc(NCCNC(=O)C(CCSC)NC(=O)OC(C)(C)C)c2c1C(=O)c1ccccc1C2=O (stereo not given) | 17.7 | 18.7 | 19.7 | 35.9 | 9.85 | 10.1 | 31.2 | 33.2 | 10.6 | > 100 |  |  |  |  |  |  |  |  |  | 
CC[N+](C)(CC)CCN1C(=O)c2ccccc2S1(=O)=O | > 100 | > 100 | > 100 | > 100 | > 100 | > 100 | > 100 | > 100 | > 100 | > 100 |  |  |  |  |  |  |  |  |  | 
Cc1cc(S(=O)(=O)Nc2nnc3cc(C(F)(F)F)cc(C)n23)c(S)cc1Cl | > 100 | > 100 | > 96.5 | > 100 | > 100 | > 100 | > 100 | > 100 | > 81.5 | > 100 |  |  |  |  |  |  |  |  |  | 
CCCCN(c1ccccc1)c1ncnc2c1cnn2C | > 100 | > 100 | > 100 | 78.1 | > 100 | > 100 | 76.4 | > 100 | > 100 | > 100 |  |  |  |  |  |  |  |  |  | 
O=c1[nH]nc(Cc2ccc(Cl)cc2)n1O | > 100 | > 100 | > 100 | > 100 | > 100 | > 100 | > 100 | > 100 | > 100 | > 100 |  |  |  |  |  |  |  |  |  | 
O=C1[C@@H]2Cc3c([nH]c4ccccc34)C(C3CCCCC3)N2C(=O)[C@@H]2CCCN12 (stereo not given in full) | 60.6 | > 100 | > 100 | 39.7 | > 100 | 76.6 | 68.7 | > 100 | > 100 | > 100 |  |  |  |  |  |  |  |  |  | 
NC(=O)CC(Nc1ncc2c(n1)-c1ccccc1OC2)C(=O)O (stereo not given) | > 100 | > 100 | > 100 | > 100 | > 100 | > 100 | > 100 | > 100 | > 100 | > 100 |  |  |  |  |  |  |  |  |  | 
O=C1C=CC(=O)c2ncccc21 | 22.3 | 27.1 | 32.4 | 28.2 | 17.6 | 3.25 | 56.4 | 20.4 | 17 | 9.03 |  |  |  |  |  |  |  |  |  | 
N#CC1=CNc2sccc2S1(=O)=O | > 100 | > 100 | > 100 | > 100 | > 100 | > 100 | > 100 | > 100 | > 100 | > 100 |  |  |  |  |  |  |  |  |  | 
CCOP(=O)(OCC)C(Nc1ccc(F)cc1)c1cccc([N+](=O)[O-])c1 (stereo not given) | > 100 | > 100 | > 100 | > 100 | > 100 | > 100 | > 100 | > 100 | > 100 | > 100 |  |  |  |  |  |  |  |  |  | 
OC1OC(c2ccco2)C(F)(F)C(F)(F)C1(F)F (stereo not given) | > 100 | > 100 | > 100 | > 100 | > 100 | > 100 | 76.2 | > 100 | > 100 | > 100 |  |  |  |  |  |  |  |  |  | 
Cc1ccc(O)c(C2=NNC(c3cccc(Br)c3)C2)c1 (stereo not given) | > 100 | > 100 | > 100 | > 100 | > 100 | 92.7 | > 100 | > 100 | > 100 | > 100 |  |  |  |  |  |  |  |  |  | 
N#CCc1nc(C#N)c(N)o1 | > 100 | > 100 | > 100 | > 100 | > 100 | > 100 | > 100 | > 100 | > 100 | > 100 |  |  |  |  |  |  |  |  |  | 
CC#CC(O)(C(=O)OC1CCCN(C)C1)C1=CC=CCC1 (stereo not given) | > 100 | > 100 | > 100 | > 100 | > 100 | > 100 | > 100 | > 100 | > 100 | > 100 |  |  |  |  |  |  |  |  |  | 
CCOC(=O)C(Cc1ccccc1)(Cc1ccc(O)cn1)NC(=O)c1ccccc1 (stereo not given) | 75.1 | 61.7 | > 100 | 43.9 | 96.7 | 59.1 | 63.6 | > 100 | 57.7 | > 100 |  |  |  |  |  |  |  |  |  | 
NC(N)=N/N=C/c1nc2sccn2c1[N+](=O)[O-] | > 100 | > 100 | > 100 | 41.8 | > 100 | > 100 | 98.4 | 57.1 | > 100 | > 100 |  |  |  |  |  |  |  |  |  | 
CCOC(=O)C(O)(NC(C)=O)C(F)(F)F (stereo not given) | > 100 | > 100 | > 100 | > 100 | > 100 | > 100 | > 100 | > 100 | > 100 | > 100 |  |  |  |  |  |  |  |  |  | 
CC1(C)C2CC(c3ccncc3)ON2C(C)(C)N1O (stereo not given) | > 100 | > 100 | > 100 | > 100 | > 100 | > 100 | > 100 | > 100 | > 100 | > 100 |  |  |  |  |  |  |  |  |  | 
Cc1ccc(S(=O)(=O)N2CCN(CCN(C)CCN3CCN(S(=O)(=O)c4ccc(C)cc4)CC3)CC2)cc1 | 56 | 40.1 | 79.7 | 33.6 | 33.6 | 35.6 | 42.2 | 68.5 | 31.6 | 26.8 |  |  |  |  |  |  |  |  |  | 
CC1(C)[C@@H]2C[C@H]1c1cnc(-c3ccccn3)cc1C2[C@@H]1c2cc(-c3ccccn3)ncc2[C@@H]2C[C@H]1C2(C)C (stereo not given in full) | > 100 | > 100 | > 100 | > 100 | > 100 | > 100 | > 100 | > 100 | > 100 | 85.9 |  |  |  |  |  |  |  |  |  | 
